Series [1] deals with Cryptococcus neoformans. Kind of series: Antifungal activity against Cryptococcus neoformans assessed as fungal growth inhibition after 72 hrs by broth microdilution method. The series is classed as functional.
For series [2], the system named is Cryptococcus neoformans. Kind of series: Antifungal activity against fluconazole-resistant Cryptococcus neoformans DUMC-158.03 assessed as fungal growth inhibition after 48 hrs by limiting dilution method. Format: functional.
Series [3] concerns Cryptococcus neoformans. As to the kind of experiment: Synergistic antifungal activity against Cryptococcus neoformans KN99alpha assessed as fractional inhibitory concentration index in presence of fluconazole by checkerboard assay. The series is classed as functional.
Series [4] has as its system Cryptococcus neoformans. As to the kind of experiment: Synergistic antifungal activity against Cryptococcus neoformans KN99alpha assessed as fractional inhibitory concentration index in presence of amphotericin B by checkerboard assay. The series is classed as functional.
A short description of series [5]: Selectivity index, ratio of CC50 for human HepDE19 cells to MIC80 for Cryptococcus neoformans KN99alpha. The series is classed as toxicity. To be noted: read-out: Selectivity Index.
The nature of series [6]: Cytotoxicity against human HepDE19 cells incubated for 72 hrs by MTS assay. The series is classed as cell-based. For orientation: Formazan colour is commonly taken as a measure of viable cells.
Series [7] concerns Cryptococcus neoformans. As to the kind of experiment: Antifungal activity against Cryptococcus neoformans KN99alpha assessed as fungal growth inhibition after 48 hrs by limiting dilution method. The series is classed as functional.
Series [8] can be described thus: Antifungal activity against Cryptococcus gattii RSA-3615 assessed as fungal growth inhibition after 48 hrs by limiting dilution method. The series is classed as functional, Cryptococcus gattii VGI.

Converted amounts (≈) assume the structure as drawn. “And” between values parts separate entries of the source, which are not always exact repeats. Equal entries are not always repeated.

Regarding `O[C@@](Cn1cnnn1)(c1ccc(F)cc1F)C(F)(F)c1ccc(-c2ccc(OC(F)(F)F)cc2)cn1`, the MIC50 in series [1] was 0.015 µg/mL (≈ 0.0292 µM). Also, in series [1] (read-out: MIC100), the MIC worked out at 0.06 µg/mL (≈ 0.117 µM).

With `Cc1nc(NC2CC2)c([N+](=O)[O-])c(SC#N)n1`, the MIC80 is 1.17 µM and 0.29 µg/mL in series [2]; 0.6 µM and 0.15 µg/mL in series [7]; 0.58 µM and 0.14 µg/mL in series [8]. Further, the “fractional inhibitory concentration index (FICI)” value is listed as 1.5 in series [3] and 1.25 in series [4]. The selectivity ratio in series [5] stood at 16. Further, the CC50 at 72 h in series [6] was 12.7 µM and 3.19 µg/mL.

In the case of `CC(C)Nc1nc(C(F)(F)F)nc(SC#N)c1[N+](=O)[O-]`, the MIC80 in series [2] is 18.8 µM and 5.76 µg/mL; in series [7] it was 12.2 µM and 4.4 µg/mL; in series [8] it was > 25 µM and > 7.68 µg/mL. In addition, in series [6], the CC50 at 72 h was 42.8 µM and 13.2 µg/mL.

What is called MIC50 is an inhibitory concentration at the 50% level, which refers to growth in some studies and to a panel of isolates in others. A word on the MIC80: it is an inhibitory concentration at the 80% level, which refers to growth in some studies and to a panel of isolates in others. As a reminder, the CC50 is the concentration at which the toxic effect on the cells reaches its halfway point. The low end stands for harm at low concentration, the high end for better tolerance by the cells.

Source of the values: ChEMBL document CHEMBL4706747, “Discovery of 5-Nitro-6-thiocyanatopyrimidines as Inhibitors of Cryptococcus neoformans and Cryptococcus gattii” (ACS Med Chem Lett, 2021).
